The results in this text go back to patent US10300058B2, “Tyrosine kinase inhibitor and uses thereof” (Xuanzhu Pharma Co., Ltd., priority 2014, dated 2019).

pIC50: −log10 of the molar value.

One experiment deals with EGFR T790M-L858R (Homo sapiens (Human), UniProt P00533, L858R/T790M). In words: Mobility Shift Assay, in vitro enzyme-inhibiting activity, EGFR T790M-L858R. The format is biochemical. As to conditions: Table 5. The procedure: (§1) 1. Preparation of Reagents
(§2) 2. Preparation of a Compound Solution
(§3) (1) To the second well of a 96-well plate, 5 μL 10 mM compound (dissolved in DMSO) was added, and 95 μL 100% DMSO was added to prepare 100 μL 0.5 mM compound.
(§4) (2) To other wells, 60 μL 100% DMSO was added. 20 μL compound from the second well was added to the third well, and 4-fold dilution was further performed to get 10 diluted concentrations.
(§5) (3) To the first well and the twelfth well of the 96-well plate, 100 μL 100% DMSO was separately added, and the two wells were used as control wells.
(§6) (4) 10 μL from each well of the 96-well plate was added to another 96-well plate, and 90 μL 1-fold kinase buffer was added.
(§7) (5) 5 μL from the 96-well plate was added to another 384-well plate, for example, transferred from A1 well of the 96-well plate to A1 and A2 wells of the 384-well plate, and transferred from A2 well of the 96-well plate to A3 and A4 wells of the 384-well plate, and so on.
(§8) To 384-well plate, 10 μL 2.5-fold enzyme solution was added, and incubated at room temperature for 10 min.
(§9) (5) Kinase reaction and stop
(§10) After incubation at 28° C. for a period of time (depending on kinase), 25 μL stop solution was added.
(§11) 4. Data on percent conversion was read by Caliper.
(§12) (1) Data on enzyme activity was obtained by Caliper program;
(§13) (2) Inhibition rate of enzyme activity was calculated from the data on enzyme activity by the following formula: Inhibition rate(%)=(maximal value−the measured value of a test compound)/(maximal value-minimal value)×100,
(§14) wherein, the maximal value represents the measured value of DMSO control; and the minimal value represents the measured value of blank control.
(§15) (3) Calculation of IC50 value by XLFit excel.

The target of another experiment is EGFR T790M (Homo sapiens (Human), UniProt P00533, T790M). As to the kind of experiment: Mobility Shift Assay, in vitro enzyme-inhibiting activity, EGFR T790M. Format: biochemical. As to conditions: for pIC50: Km ATP; for Selectivity (WT/T790M): ratio of IC50. The protocol: as §1, §2, §3, §4, §5, §6, §7, §8, §9, §10, §11, §12, §13, §14, §15
A further experiment addresses EGFR L858R (Homo sapiens (Human), UniProt P00533, L858R). As to the kind of experiment: Mobility Shift Assay, in vitro enzyme-inhibiting activity, EGFR L858R. The format is biochemical. As to conditions: Table 5. The protocol: as §1, §2, §3, §4, §5, §6, §7, §8, §9, §10, §11, §12, §13, §14, §15
Experiment [1] concerns H1975 cell (EGFR-T790M/L858R double mutation). As to the kind of experiment: In vitro cytologic activity, Celltiter-Glo, H1975 cells. The format is cell-based, human. As to conditions: for pIC50: Homo sapiens, NCI-H1975, 72 h, 72 h, Celltiter-Glo; for Selectivity (A431/H1975): ratio of IC50. The protocol:
(§16) 1.1 Preparation of Cell Suspension
(§17) Culture medium was removed from culture bottle;
(§18) PBS was added to wash the cells; • pancreatin was added for digestion, and the cells were collected by centrifugation; • the cells were resuspended in a culture medium containing 10% fetal bovine serum, counted and adjusted to a concentration of 2×10^4/mL or 3×10^4/mL (cell viability must be greater than 90%); • the cell suspension was added to a 96-well plate, at 100 μL for each well, i.e., 2000/well for H1975 cell; 3000/well for A431 cell; and • the cells were cultured at 37° C. in 5% CO2 incubator overnight.
(§19) Dilution of a compound in DMSO (or water for injection) • (1) The compound was 5-fold diluted with DMSO from 10 mM to 2 mM, and then 4-fold diluted from 2 mM, to get 10 concentrations; • High control (HC, control without compound inhibition): 0.5% DMSO; • Low control (LC, control with compound inhibition): 1000 nM.
(§20) i. To each well, 99 μL growth medium containing 10% FBS was added, and then 1 μL diluted compound was added, the total volume of the well was […], and the final concentration of the compound was measured.
(§21) The test plate was left at room temperature, and equilibrated for 30 min. 80 μL culture medium was discarded. 60 μL CTG reagent (Celltiter-Glo kit) was added, and shaked for 2 min in a fast shaker, and was placed at room temperature for 10 min. The values were read by Envision instrument.

The target of the next experiment is wild-type EGFR (WT EGFR) (Homo sapiens (Human), UniProt P00533). In words: Mobility Shift Assay, in vitro enzyme-inhibiting activity, wild-type EGFR. Format: biochemical. As to conditions: Km ATP. The protocol: as §1, §2, §3, §4, §5, §6, §7, §8, §9, §10, §11, §12, §13, §14, §15
Experiment [2] relates to A431 cell (wild-type EGFR gene). In words: In vitro cytologic activity, Celltiter-Glo, A431 cells. The format is cell-based. To be noted: Homo sapiens, A-431, 72 h. The protocol:
as §16, §17, §18, §19, §20, §21
(In general: Cellular ATP, detected with luciferase, serves as a proxy for viable cell number.)

A further experiment addresses EGFR (d746-750) (Homo sapiens (Human), UniProt P00533, DEL746-750). In words: Mobility Shift Assay, in vitro enzyme-inhibiting activity, EGFR (d746-750). Format: biochemical. To be noted: Table 5. The protocol:
as §1, §2, §3, §4, §5, §6, §7, §8, §9, §10, §11, §12, §13, §14, §15

Sequence of wild-type EGFR (WT EGFR) (P00533 25-1210): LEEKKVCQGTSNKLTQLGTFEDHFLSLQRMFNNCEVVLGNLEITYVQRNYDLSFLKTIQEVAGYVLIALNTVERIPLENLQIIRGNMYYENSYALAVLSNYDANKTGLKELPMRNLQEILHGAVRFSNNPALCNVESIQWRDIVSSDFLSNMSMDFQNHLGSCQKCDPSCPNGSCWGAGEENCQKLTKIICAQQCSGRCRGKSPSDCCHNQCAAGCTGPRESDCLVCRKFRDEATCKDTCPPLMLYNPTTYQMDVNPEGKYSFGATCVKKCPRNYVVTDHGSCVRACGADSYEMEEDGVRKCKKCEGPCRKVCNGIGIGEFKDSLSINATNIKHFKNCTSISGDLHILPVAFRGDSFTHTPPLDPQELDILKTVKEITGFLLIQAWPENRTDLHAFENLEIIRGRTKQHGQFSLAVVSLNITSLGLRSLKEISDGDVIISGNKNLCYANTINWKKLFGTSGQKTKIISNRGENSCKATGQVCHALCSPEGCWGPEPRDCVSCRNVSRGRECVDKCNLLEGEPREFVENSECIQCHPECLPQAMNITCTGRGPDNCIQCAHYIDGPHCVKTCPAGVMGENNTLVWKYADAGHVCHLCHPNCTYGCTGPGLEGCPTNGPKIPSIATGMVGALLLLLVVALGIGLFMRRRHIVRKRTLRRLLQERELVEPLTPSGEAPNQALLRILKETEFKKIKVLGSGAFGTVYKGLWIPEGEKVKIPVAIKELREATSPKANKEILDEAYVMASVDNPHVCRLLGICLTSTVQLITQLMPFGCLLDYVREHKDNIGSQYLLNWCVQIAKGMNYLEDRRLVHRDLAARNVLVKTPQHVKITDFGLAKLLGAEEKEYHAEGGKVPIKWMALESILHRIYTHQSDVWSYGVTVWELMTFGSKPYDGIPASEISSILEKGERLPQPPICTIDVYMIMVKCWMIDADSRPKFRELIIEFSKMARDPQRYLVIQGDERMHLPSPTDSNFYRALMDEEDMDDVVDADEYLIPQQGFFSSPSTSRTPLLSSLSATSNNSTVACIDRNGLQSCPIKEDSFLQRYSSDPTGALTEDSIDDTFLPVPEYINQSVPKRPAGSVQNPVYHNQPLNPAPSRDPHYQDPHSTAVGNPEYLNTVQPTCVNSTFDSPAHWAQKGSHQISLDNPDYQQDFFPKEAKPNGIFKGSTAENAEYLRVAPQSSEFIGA
Sequence of EGFR T790M (P00533 25-1210 T790M): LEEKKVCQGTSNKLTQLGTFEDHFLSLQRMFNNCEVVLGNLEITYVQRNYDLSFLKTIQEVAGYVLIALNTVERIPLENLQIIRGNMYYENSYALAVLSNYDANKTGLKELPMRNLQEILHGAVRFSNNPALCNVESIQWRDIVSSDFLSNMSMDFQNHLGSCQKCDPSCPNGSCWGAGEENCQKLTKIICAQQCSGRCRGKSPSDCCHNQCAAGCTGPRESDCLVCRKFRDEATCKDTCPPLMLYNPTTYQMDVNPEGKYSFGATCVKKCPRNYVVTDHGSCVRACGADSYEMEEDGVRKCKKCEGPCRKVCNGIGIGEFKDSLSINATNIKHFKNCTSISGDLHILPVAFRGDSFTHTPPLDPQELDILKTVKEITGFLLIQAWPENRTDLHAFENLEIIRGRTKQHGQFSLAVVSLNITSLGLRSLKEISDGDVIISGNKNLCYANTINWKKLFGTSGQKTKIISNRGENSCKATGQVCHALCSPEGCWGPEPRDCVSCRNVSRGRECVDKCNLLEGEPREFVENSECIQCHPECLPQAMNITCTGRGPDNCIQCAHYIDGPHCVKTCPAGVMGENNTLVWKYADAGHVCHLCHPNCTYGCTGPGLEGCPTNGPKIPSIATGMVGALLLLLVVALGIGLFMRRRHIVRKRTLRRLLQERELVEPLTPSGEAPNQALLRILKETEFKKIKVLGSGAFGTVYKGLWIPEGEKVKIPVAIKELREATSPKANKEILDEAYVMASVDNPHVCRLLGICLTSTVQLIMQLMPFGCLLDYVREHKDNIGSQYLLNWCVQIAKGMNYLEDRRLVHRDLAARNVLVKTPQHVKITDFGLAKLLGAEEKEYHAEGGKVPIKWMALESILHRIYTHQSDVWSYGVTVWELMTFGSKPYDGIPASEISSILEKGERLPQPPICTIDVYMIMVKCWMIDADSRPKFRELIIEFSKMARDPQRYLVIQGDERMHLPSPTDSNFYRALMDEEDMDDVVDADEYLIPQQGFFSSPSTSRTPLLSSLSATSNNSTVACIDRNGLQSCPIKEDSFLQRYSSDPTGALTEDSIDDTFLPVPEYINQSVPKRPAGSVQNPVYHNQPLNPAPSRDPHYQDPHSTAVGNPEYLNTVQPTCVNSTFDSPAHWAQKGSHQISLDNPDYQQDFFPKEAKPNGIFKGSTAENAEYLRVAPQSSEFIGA
Sequence of EGFR (d746-750) (P00533 other isoform, or with tags, fused parts or gaps del 1-668/del 746-750 limits assumed): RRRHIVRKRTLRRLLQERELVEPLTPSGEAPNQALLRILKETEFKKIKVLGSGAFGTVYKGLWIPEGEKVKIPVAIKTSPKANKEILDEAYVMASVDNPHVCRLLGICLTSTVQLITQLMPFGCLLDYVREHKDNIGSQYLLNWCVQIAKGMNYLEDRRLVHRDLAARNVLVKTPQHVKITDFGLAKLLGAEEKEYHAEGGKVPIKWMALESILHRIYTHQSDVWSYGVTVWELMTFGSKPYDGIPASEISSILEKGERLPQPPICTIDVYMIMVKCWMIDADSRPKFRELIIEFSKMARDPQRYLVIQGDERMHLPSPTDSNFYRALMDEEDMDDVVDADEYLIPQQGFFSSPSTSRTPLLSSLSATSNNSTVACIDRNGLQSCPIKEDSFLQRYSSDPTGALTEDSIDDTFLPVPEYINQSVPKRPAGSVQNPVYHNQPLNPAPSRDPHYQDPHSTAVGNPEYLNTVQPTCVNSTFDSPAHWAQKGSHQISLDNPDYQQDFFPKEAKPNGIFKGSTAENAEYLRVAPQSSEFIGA
Sequence of EGFR L858R (P00533 25-1210 L858R): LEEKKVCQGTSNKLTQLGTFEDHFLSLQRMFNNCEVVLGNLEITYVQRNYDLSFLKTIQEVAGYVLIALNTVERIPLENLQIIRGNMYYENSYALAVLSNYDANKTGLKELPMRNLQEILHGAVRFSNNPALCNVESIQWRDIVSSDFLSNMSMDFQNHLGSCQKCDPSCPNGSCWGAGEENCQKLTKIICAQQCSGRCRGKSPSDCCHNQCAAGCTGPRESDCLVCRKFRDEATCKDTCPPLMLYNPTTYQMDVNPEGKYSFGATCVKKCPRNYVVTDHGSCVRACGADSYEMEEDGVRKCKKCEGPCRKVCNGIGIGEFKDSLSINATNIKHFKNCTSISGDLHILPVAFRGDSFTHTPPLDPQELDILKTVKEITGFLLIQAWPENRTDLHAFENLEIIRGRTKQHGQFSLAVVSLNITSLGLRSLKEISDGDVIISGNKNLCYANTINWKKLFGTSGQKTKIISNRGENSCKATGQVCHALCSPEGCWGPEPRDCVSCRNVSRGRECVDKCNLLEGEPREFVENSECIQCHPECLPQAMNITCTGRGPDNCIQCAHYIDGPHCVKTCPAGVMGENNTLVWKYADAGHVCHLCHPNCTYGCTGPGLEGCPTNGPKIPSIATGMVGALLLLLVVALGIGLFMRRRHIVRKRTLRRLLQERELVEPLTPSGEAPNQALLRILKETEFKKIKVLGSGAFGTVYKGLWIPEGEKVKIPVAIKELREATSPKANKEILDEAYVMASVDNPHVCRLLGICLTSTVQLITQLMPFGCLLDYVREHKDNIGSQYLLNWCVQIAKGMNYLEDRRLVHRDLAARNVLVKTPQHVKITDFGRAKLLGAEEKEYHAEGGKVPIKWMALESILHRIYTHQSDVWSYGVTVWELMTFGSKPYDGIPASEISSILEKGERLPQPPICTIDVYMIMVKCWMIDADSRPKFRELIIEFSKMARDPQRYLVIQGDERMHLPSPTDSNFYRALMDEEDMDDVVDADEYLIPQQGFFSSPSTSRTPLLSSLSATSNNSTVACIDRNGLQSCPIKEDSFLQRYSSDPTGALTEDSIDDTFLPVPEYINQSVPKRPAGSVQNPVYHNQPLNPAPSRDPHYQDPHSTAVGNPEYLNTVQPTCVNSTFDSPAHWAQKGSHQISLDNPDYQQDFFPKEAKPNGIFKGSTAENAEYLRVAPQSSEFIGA

On to `C=CC(=O)Nc1cccc(Nc2nc(Nc3ccc(N4CCN(C(C)=O)CC4)cc3OC)ncc2C(F)(F)F)n1` [Compound 1, N-(6-((2-((4-(4-acetylpiperazin-1-yl)-2-methoxyphenyl)amino)-5-(trifluoromethyl)pyrimidin-4-yl)amino)pyridin-2-yl)acrylamide], for which the pIC50 (commonly −log10 of the IC50, conventionally taken in molar units) on EGFR T790M-L858R (Km ATP) is 8.36; at EGFR T790M (Table 1), 8.24; at EGFR L858R (Km ATP) it was 7.07; in experiment [1] (Table 9), 7.27; on wild-type EGFR (WT EGFR) (Table 1) it was 6.49; on wild-type EGFR (WT EGFR) (Table 5) it was 6.62. Moreover, the pIC50 in experiment [2] (Table 9) is 6.35; on EGFR (d746-750) (Km ATP), 7.69. In addition, the “Selectivity WT/T790M-L858R” value on EGFR T790M-L858R (ratio of IC50) is 54.3. Moreover, at EGFR T790M (Table 1), the “Selectivity (WT/T790M)” value was found to be 56.7. Also, the “Selectivity WT/L858R” value at EGFR L858R (ratio of IC50) is recorded as 2.8. In addition, the “Selectivity (A431/H1975)” value in experiment [1] (Table 9) came out at 8.3. Besides, the “Selectivity WT/d746-750” value on EGFR (d746-750) (ratio of IC50) is listed as 11.8.
Take `C=CC(=O)Nc1cccc(Nc2nc(Nc3ccc(C4CCN(C(=O)CCF)CC4)cc3OC)ncc2C(F)(F)F)c1` [Compound 25, N-(3-((2-((4-(1-(3-fluoropropionyl)piperidin-4-yl)-2-methoxyphenyl)amino)-5-(trifluoromethyl)pyrimidin-4-yl)amino)phenyl)acrylamide]: the negative logarithm of the IC50 (pIC50) on EGFR T790M (Table 4, unit inferred) is 8.15; in experiment [1] (Table 10, unit inferred) it was 6.51; at wild-type EGFR (WT EGFR) (Table 4, unit inferred) it was 6.17; in experiment [2] (Table 10, unit inferred), 5.41. Besides, the “Selectivity (WT/T790M)” value at EGFR T790M (Table 4) came out at 96.2. In addition, the “Selectivity (A431/H1975)” value in experiment [1] (Table 10) came to 12.6.
`C=CC(=O)Nc1cccc(Nc2nc(Nc3ccc(C4CCN(C)CC4)cc3OC)ncc2C(F)(F)F)c1` [Compound 29, N-(3-((2-((2-methoxy-4-(1-methylpiperidin-4-yl)phenyl)amino)-5-(trifluoromethyl)pyrimidin-4-yl)amino)phenyl)acrylamide]: the pIC50 on EGFR T790M (Table 4, unit inferred) was 9.49; in experiment [1] (Table 10, unit inferred), 7.65; at wild-type EGFR (WT EGFR) (Table 4, unit inferred) it was 7.96; in experiment [2] (Table 10, unit inferred) it was 6.57. The “Selectivity (WT/T790M)” value on EGFR T790M (Table 4) stood at 34.4. For the same compound, in experiment [1] (Table 10), the “Selectivity (A431/H1975)” value is recorded as 12.1.
In the case of `C=CC(=O)Nc1cccc(Nc2nc(Nc3ccc(C4CCN(C5COC5)CC4)cc3OC)ncc2C(F)(F)F)c1` [Compound 41, N-(3-((2-((2-methoxy-4-(1-(oxetan-3-yl)piperidin-4-yl)phenyl)amino)-5-(trifluoromethyl)pyrimidin-4-yl)amino)phenyl)acrylamide], the pIC50 at EGFR T790M (Table 4, unit inferred) is 8.85; in experiment [1] (Table 10, unit inferred) it was 7.54; on wild-type EGFR (WT EGFR) (Table 4, unit inferred), 7.09; in experiment [2] (Table 10, unit inferred), 6.61. The “Selectivity (WT/T790M)” value on EGFR T790M (Table 4) came out at 58.6. Besides, the “Selectivity (A431/H1975)” value in experiment [1] (Table 10) is listed as 8.6.
With `C=CC(=O)Nc1cccc(Nc2nc(Nc3ccc(OCCCS(C)(=O)=O)cc3OC)ncc2C(F)(F)F)c1` [Compound 43, N-(3-((2-((2-methoxy-4-(3-(methylsulfonyl)propoxy)phenyl)amino)-5-(trifluoromethyl)pyrimidin-4-yl)amino)phenyl)acrylamide], the pIC50 at EGFR T790M (Table 4, unit inferred) was 8.44; in experiment [1] (Table 10, unit inferred) it was 6.37; on wild-type EGFR (WT EGFR) (Table 4, unit inferred), 6.80; in experiment [2] (Table 10, unit inferred), 5.58. Besides, the “Selectivity (WT/T790M)” value on EGFR T790M (Table 4) was 44.2. The “Selectivity (A431/H1975)” value in experiment [1] (Table 10) is recorded as 6.1.
